Source: patent US5789422A, “Substituted arylalkylamines as neurokinin antagonists” (Schering Corporation, priority 1996, dated 1998)

What was measured:
[1] = molecular target: T1, human neurokinin 2 (NK2) receptor (Homo sapiens, UniProt P21452); test: Neurokinin receptor binding assay, human NK2; conditions: CHO cell membranes, [3H]-Neurokinin A, read-out: % Inhibition of NK2 at a dose of 1 μM
T1 construct: expressed in transfected cells; host or cells: CHO (Chinese hamster ovary) cells, membranes
T1 sequence (P21452 1-398): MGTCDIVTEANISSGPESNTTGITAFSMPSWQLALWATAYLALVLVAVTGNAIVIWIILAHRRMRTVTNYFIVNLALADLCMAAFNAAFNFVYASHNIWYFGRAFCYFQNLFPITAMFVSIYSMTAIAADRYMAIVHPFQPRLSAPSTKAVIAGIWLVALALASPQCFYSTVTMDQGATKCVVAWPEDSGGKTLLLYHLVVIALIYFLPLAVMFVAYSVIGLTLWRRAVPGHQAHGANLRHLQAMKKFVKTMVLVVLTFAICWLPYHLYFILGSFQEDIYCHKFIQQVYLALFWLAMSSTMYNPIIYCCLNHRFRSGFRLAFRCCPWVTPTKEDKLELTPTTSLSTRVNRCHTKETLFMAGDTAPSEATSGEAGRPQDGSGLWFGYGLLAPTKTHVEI
Experimental: (§1) Chinese Hamster ovary (CHO) cells transfected with the coding regions for the human neurokinin 1 (NK1) of the human neurokinin 2 (NK2) receptors are grown in Dulbecco's minimal essential medium supplemented with 10% fetal calf serum, 0.1 mM non-essential amino acids, 2 mM glutamine, 100 units/ml of penicillin and streptomycin, and 0.8 mg of G418/ml at 37° C. in a humidified atmosphere containing 5% CO2.
(§2) Cells are detached from T-175 flasks with a sterile solution containing 5 mM EDTA in phosphate buffered saline. Cells are harvested by centrifugation and washed in RPMI media at […] for 5 minutes. The pellet is resuspended in Tris-HCl (pH7.4) containing 1 uM phsphoramidon and 4 ug/ml of chymostatin at a cell density of 30×10^6 cells/ml. The suspension is then homogenized in a Brinkman Polytron (setting 5) for 30-45 seconds. The homogenate is centrifuged at 800 x g for 5 min at 4° C. to collect unbroken cells and nuclei. The supernatant is centrifuged in a Sorvall RC5C at 19,000 rpm ([…]) for 30 min at 4° C. The pellet is resuspended, an aliquot is removed for a protein determination (BCA) and washed again. The resulting pellet is stored at -80° C.
(§3) To assay receptor binding, 50 μl of [^3 H]-Substance P (9-Sar, 11-Met) (specific activity 41 Ci/mmol) (Dupont-NEN) (0.8 nM for the NK-1 assay) or [^3 H]-Neurokinin A (specific activity 114 Ci/ mmole) (Zenca) (1.0 nM for the NK-2 assay) is added to tubes containing buffer (50 mM Tris-HCl (pH 7.4) with 1 mM MnCl2 and 0.2% Bovine Serum Albumin) and either DMSO or test compound. Binding is initiated by the addition of 100 μl of membrane (10-20 μg) containing the human NK-1 or NK-2 receptor in a final volume of 200 μl. After 40 minutes at room temperature, the reaction is stopped by rapid filtration onto Whatman GF/C filters which have been presoaked in 0.3% polyethylenimine. Filters are washed 2 times with 3 ml of 50 mM Tris-HCl (pH7.4). Filters are added to 6 mls of Ready-Safe liquid scintillation cocktail and quantified by liquid scintillation spectrometry in a LKB 1219 RackBeta counter. Non-specific binding is determined by the addition of either 1 μM of CP-99994 (NK-1) or 1 μM SR-48968 (NK-2) (both synthesized by the chemistry department of Schering-Plough Research Institute). IC50 values are determined from competition binding curves and Ki values are determined according to Cheng and Prusoff using the experimentally determined value of 0.8 nM for the NK-1 receptor and 2.4 nM for the NK-2 receptor.
(§4) % Inhibition is the difference between the percent of maximum specific binding (MSB) and 100%. The percent of MSB is defined by the following equation, wherein "dpm" is disintegrations per minute: [formula]

[2] = molecular target: T2, human neurokinin 1 (NK1) receptor (Homo sapiens, UniProt P25103); test: Neurokinin receptor binding assay, human NK1; conditions: CHO cell membranes, [3H]-Substance P, read-out: % Inhibition of NK1 at a dose of 1 μM
T2 construct: expressed in transfected cells; host or cells: CHO (Chinese hamster ovary) cells, membranes
T2 sequence (P25103 whole entry): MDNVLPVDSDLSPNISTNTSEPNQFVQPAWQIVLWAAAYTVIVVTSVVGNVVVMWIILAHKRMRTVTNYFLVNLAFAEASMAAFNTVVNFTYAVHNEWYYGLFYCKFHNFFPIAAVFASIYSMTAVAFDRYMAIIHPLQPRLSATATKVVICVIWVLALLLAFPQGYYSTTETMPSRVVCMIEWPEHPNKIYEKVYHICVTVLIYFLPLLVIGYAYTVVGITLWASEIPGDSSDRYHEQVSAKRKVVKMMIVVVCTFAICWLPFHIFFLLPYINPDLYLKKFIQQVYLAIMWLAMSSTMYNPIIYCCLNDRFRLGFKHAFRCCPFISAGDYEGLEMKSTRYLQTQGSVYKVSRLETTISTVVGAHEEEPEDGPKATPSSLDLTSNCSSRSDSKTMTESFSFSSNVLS
Experimental: as §1, §2, §3, §4

SMILES	inhibition at 1 µM [1]	inhibition at 1 µM [2]
CN(C[C@H](c1ccc(Cl)c(Cl)c1)[C@@H](CN1CCC(O)(c2ccccc2)CC1)OCc1cc(C(F)(F)F)cc(C(F)(F)F)c1)C(=O)c1ccccc1 (relative stereo) [Example 19]	18%	78%
COC(CN1CCC(O)(c2ccccc2)CC1)C(CNC(=O)OC(C)(C)C)c1ccc(Cl)c(Cl)c1 (stereo not shown) [Example 12]	68%	9%
CN(CC(C(=O)CN1CCC(O)(c2ccccc2)CC1)c1ccc(Cl)c(Cl)c1)C(=O)c1ccccc1 (stereo not shown) [Example 16]	96%	23%
CON=C(CN1CCC(O)(c2ccccc2)CC1)C(CN(C)C(=O)c1ccccc1)c1ccc(Cl)c(Cl)c1 (stereo not shown) [Example 18]	15%	1%
CN(C[C@H](c1ccc(Cl)c(Cl)c1)[C@@H](O)CN1CCC(O)(c2ccccc2)CC1)C(=O)c1ccccc1 (relative stereo) [Example 2]	88%	81%
